Legend:
[1] = tested on: Leishmania donovani; assay: Antileishmanial activity against amastigotes of Leishmania donovani Khartoum infected in golden hamster assessed as reduction of parasite level in liver at 52 mg/kg bid for 4 days; format: functional; design: scale not given: the % may be the effect or the level left
[2] = tested on: Leishmania donovani; assay: Ratio of glucantime SD50 to compound SD50 for amastigotes of Leishmania donovani Khartoum infected in golden hamster; format: functional
[3] = tested on: Leishmania donovani; assay: Antileishmanial activity against amastigotes of Leishmania donovani Khartoum infected in golden hamster assessed as reduction of parasite level in liver at 13 mg/kg bid for 4 days; format: functional; design: scale not given: the % may be the effect or the level left
[4] = tested on: Syrian golden hamster; assay: Toxicity in amastigotes of Leishmania donovani Khartoum infected golden hamster at 208 mg/kg bid for 4 days; format: organism-based, Mesocricetus auratus; design: dose 208 mg/kg; details: in vivo, 96 h

What does the source list for `CCN(CC)CCCCCCNc1cc(OC)cc2c(C)c3ccccc3nc12`?
Activity [1]: 53%; Ratio [2]: 0.2; Activity [3]: 36%; Activity [4]: Toxic

— ChEMBL document CHEMBL3243940, “Primaquine analogues: derivatives of 4-amino-2-methoxyacridine” (J Med Chem, 1979)
